According to the Deep4Chem optical property database:

Test: solvent given as SMILES

**Q.** For `C[Si]1(C)O[Si](C)(C)c2cc3c(-c4ccc(F)cc4)c4ccccc4nc3cc21`, which emission maximum (in ClCCl) is on record?
**A.** Its emission maximum is 503 nm.

**Q.** Which results are given for `CC(C)=CC(=O)c1cc2c(cc1F)NC(C)(C)CC2=O`?
**A.** emission maximum (in CC#N): 422 nm; emission maximum (in CCO): 459 nm

**Q.** For `N#Cc1c(-n2nnc3ccccc32)n([C@H]2C[C@H](O)[C@@H](CO)O2)c2ncnc(N)c12`, which emission maximum (in CO) is on record?
**A.** The emission maximum was 416 nm.

**Q.** With `Cc1c(COC(=O)Cc2cccc3ccccc23)n2c(OCC(=O)Cc3cccc4ccccc34)c(C)c(=O)n2c1=O` as the compound, how does the emission maximum (in CCO) read?
**A.** Its emission maximum is 458 nm.

**Q.** For `Cc1ccccc1CN(Cc1ccccc1C)c1nc(C#N)c(N(Cc2ccccc2C)Cc2ccccc2C)nc1C#N`, which emission maximum (in ClC(Cl)Cl) is on record?
**A.** Its emission maximum is 582 nm.

**Q.** Which emission maximum (in ClCCl) does the source give for `COc1ccc(/C=C/c2ccncn2)cc1` here?
**A.** The emission maximum was 418 nm.

**Q.** What does the source list for `COc1ccc(OC)c(C=O)c1`?
**A.** emission maximum (in CC(C)=O): 410 nm; emission maximum (in CCCO): 458 nm; emission maximum (in CCO): 459 nm; emission maximum (in CNC=O): 458 nm; emission maximum (in CO): 466 nm; emission maximum (in CS(C)=O): 431 nm; emission maximum (in ClC(Cl)Cl): 427 nm; emission maximum (in NC=O): 464 nm

**Q.** Which emission maximum (in CCO) does the source give for `CN(C)c1ccc2c(-c3ccc(N)cc3C(=O)[O-])c3ccc(=[N+](C)C)cc-3oc2c1` here?
**A.** Its emission maximum is 564 nm.

**Q.** And the emission maximum (in O)?
**A.** Its emission maximum is 572 nm.

**Q.** With `CCOC(=O)c1c2c3c(ccc(OC)c3c3cc4c(cc13)[Si](C)(C)O[Si]4(C)C)N(C)C2=O` as the compound, how does the emission maximum (in CC#N) read?
**A.** The emission maximum was 418 nm.

**Q.** For `O=c1oc2ccc(Cl)cc2cc1-c1cc2cc(Cl)ccc2o1`, which emission maximum (in CC#N) is on record?
**A.** The emission maximum was 431 nm.

**Q.** What about the emission maximum (in CCOC(C)=O) of the same compound?
**A.** Its emission maximum is 429 nm.

**Q.** And the emission maximum (in CS(C)=O)?
**A.** Its emission maximum is 488 nm.

**Q.** And the emission maximum (in Cc1ccccc1)?
**A.** The emission maximum was 433 nm.

**Q.** And the emission maximum (in O)?
**A.** Its emission maximum is 473 nm.

**Q.** Which emission maximum (in CC#N) does the source give for `COc1cc2cc(/C=C/c3ccc(/C=C/c4ccc(/C=C(\C#N)C(=O)O)cc4)cc3)c(=O)oc2cc1OC` here?
**A.** Its emission maximum is 489 nm.

**Q.** Which emission maximum (in ClCCl) does the source give for `COc1c2ccccc2c(OC)c2c(C#Cc3ccccc3)c3cc4ccccc4cc3c(C#Cc3ccccc3)c12` here?
**A.** The emission maximum was 718 nm.

**Q.** With `Cc1cn2cc(-c3ccc(C#N)cc3)[n-][n+]2c1` as the compound, how does the emission maximum (in ClCCl) read?
**A.** Its emission maximum is 518 nm.

**Q.** Which emission maximum (in ClCCl) does the source give for `O=c1oc2ccccc2cc1-c1ccc(-c2ccc(-c3cc4ccccc4oc3=O)cc2)cc1` here?
**A.** The emission maximum was 430 nm.

**Q.** Which emission maximum (in ClC(Cl)Cl) does the source give for `CCCN1c2ccccc2Sc2cc(/C=C\c3cc(=O)oc4ccc(C)cc34)ccc21` here?
**A.** Its emission maximum is 637 nm.

**Q.** For `N#CC(C#N)=C(c1ccc(-n2ccc3ccccc32)cc1)c1ccc(-n2ccc3ccccc32)cc1`, which emission maximum (in Cc1ccccc1) is on record?
**A.** Its emission maximum is 536 nm.

**Q.** For `c1ccc(N2N=C(c3cccc4ccccc34)CC2c2ccc3ccc4cccc5ccc2c3c45)cc1` (stereo not drawn), which emission maximum (in ClCCl) is on record?
**A.** The emission maximum was 455 nm.

**Q.** Which emission maximum (in CN(C)C=O) does the source give for `NCCCCCCCCCCCCN1C(=O)c2ccc3c4ccc5c6c(ccc(c7ccc(c2c37)C1=O)c64)C(=O)N(CCCCCCCCCCCCN)C5=O` here?
**A.** The emission maximum was 537 nm.

**Q.** Which emission maximum (in C1CCCCC1) does the source give for `CCC1=C(C)C(=O)n2c1cc1c(c(C)c(C(=O)OCC(C)C)n1CC(C)C)c2=O` here?
**A.** Its emission maximum is 437 nm.

**Q.** What about the emission maximum (in CO) of the same compound?
**A.** Its emission maximum is 498 nm.

**Q.** What about the emission maximum (in CS(C)=O) of the same compound?
**A.** The emission maximum was 479 nm.

**Q.** And the emission maximum (in ClC(Cl)Cl)?
**A.** The emission maximum was 457 nm.

**Q.** And the emission maximum (in c1ccccc1)?
**A.** The emission maximum was 446 nm.

**Q.** With `CC(=O)OCCOCCN1C(=O)c2cc(NCCOCCO)c3c4c(cc(NCCOCCO)c(c24)C1=O)C(=O)N(CCOCCOC(C)=O)C3=O` as the compound, how does the emission maximum (in CO) read?
**A.** The emission maximum was 641 nm.

**Q.** And the emission maximum (in ClC(Cl)Cl)?
**A.** Its emission maximum is 640 nm.

**Q.** What about the emission maximum (in O) of the same compound?
**A.** The emission maximum was 657 nm.

**Q.** For `Cc1cccc2nc3c(=O)n(C)c(=O)nc-3n(C)c12`, which emission maximum (in CC#N) is on record?
**A.** Its emission maximum is 532 nm.

**Q.** For `O=C(O)COc1ccc2[nH]c3c(c2c1)CCCC3=O`, which emission maximum (in C1CCOC1) is on record?
**A.** Its emission maximum is 419.81 nm.

**Q.** What about the emission maximum (in C1COCCO1) of the same compound?
**A.** Its emission maximum is 404.04 nm.

**Q.** What about the emission maximum (in CC#N) of the same compound?
**A.** Its emission maximum is 419.23 nm.

**Q.** And the emission maximum (in CCCCCCCCCCCCO)?
**A.** The emission maximum was 449.42 nm.

**Q.** And the emission maximum (in CCCCCCCCCCO)?
**A.** Its emission maximum is 449.81 nm.

**Q.** What about the emission maximum (in CCCCCCCCO) of the same compound?
**A.** Its emission maximum is 456.15 nm.

**Q.** And the emission maximum (in CCCCCCO)?
**A.** Its emission maximum is 469.04 nm.

**Q.** And the emission maximum (in CCCCO)?
**A.** Its emission maximum is 464.23 nm.

**Q.** And the emission maximum (in CCO)?
**A.** Its emission maximum is 472.12 nm.

**Q.** What about the emission maximum (in CCOC(C)=O) of the same compound?
**A.** Its emission maximum is 410 nm.

**Q.** What about the emission maximum (in CN(C)C=O) of the same compound?
**A.** Its emission maximum is 430 nm.

**Q.** What about the emission maximum (in CO) of the same compound?
**A.** The emission maximum was 491.73 nm.

**Q.** What about the emission maximum (in CS(C)=O) of the same compound?
**A.** Its emission maximum is 426.92 nm.

**Q.** And the emission maximum (in Cc1ccccc1)?
**A.** Its emission maximum is 400.96 nm.

**Q.** What about the emission maximum (in O) of the same compound?
**A.** The emission maximum was 507.69 nm.

**Q.** And the emission maximum (in c1ccccc1)?
**A.** Its emission maximum is 399.81 nm.

**Q.** With `O=Cc1nc2ccc(C#Cc3ccc(N(c4ccc(C#Cc5ccc6nc(C=O)sc6c5)cc4)c4ccc(C#Cc5ccc6nc(C=O)sc6c5)cc4)cc3)cc2s1` as the compound, how does the emission maximum (in Cc1ccccc1) read?
**A.** The emission maximum was 500 nm.

**Q.** Which results are given for `Cc1cc(C)c(B(c2ccc(-c3ccc(-c4nc5c6ccccc6c6ccccc6c5[nH]4)cc3)cc2)c2c(C)cc(C)cc2C)c(C)c1`?
**A.** emission maximum (in C1CCOC1): 474 nm; emission maximum (in CC(C)=O): 493 nm; emission maximum (in CS(C)=O): 520 nm; emission maximum (in Cc1ccccc1): 435 nm; emission maximum (in ClCCl): 469 nm

**Q.** Which emission maximum (in CC#N) does the source give for `c1ccc(-c2nc(-c3ccccc3)c(-c3ccccc3)[nH]2)cc1` here?
**A.** The emission maximum was 387 nm.

**Q.** And the emission maximum (in CO)?
**A.** The emission maximum was 386.5 nm.

**Q.** Which emission maximum (in CC#N) does the source give for `O=C1c2ccccc2-c2cc3ccccc3c(=O)n21` here?
**A.** The emission maximum was 443 nm.

**Q.** And the emission maximum (in CO)?
**A.** Its emission maximum is 445 nm.

**Q.** What about the emission maximum (in CS(C)=O) of the same compound?
**A.** Its emission maximum is 455 nm.

**Q.** And the emission maximum (in ClC(Cl)Cl)?
**A.** The emission maximum was 445 nm.
